± gives the expanded uncertainty stated by the source.
Test: molar enthalpy of vaporization or sublimation
Settings: 298.15 K, Liquid

Row | SMILES | molar enthalpy (Calvet microcalorimetry) [kJ/mol] | molar enthalpy (Vacuum drop calorimetry) [kJ/mol]
1 | Cc1ccc(C)s1 [2,5-dimethylthiophene] | 40.2 ± 1.8 | 
2 | CC(=O)c1cc(C)sc1C [3-acetyl-2,5-dimethylthiophene] |  | 61.3 ± 2.6
